Laboratory results published in PubChem BioAssay AID1963980 (Molecular Pharmacology Branch, DTP, NCI, 2024).
pIC50: −log10 of the molar value.

Test system: 475296-252-R-J1-PDC spheroid viability
Experiment: Anticancer human tumor 475296-252-R-J1-PDC patient-derived rectal carcinoma cell line growth inhibition [PI3K]
Details: spheroids with HUVEC and MSC; for pIC50: curve of first compound; for viability, T/C: stronger effect = lower value
Procedure, shortened: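 Targeted small molecules plus PI3K inhibitors, half-log dose series from Cmax (default top 10 microM), were applied to heterotypic spheroids of cancer cells with HUVEC and MSCs. Viability indicated growth inhibition.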

[1] = second compound 0.0316 µM, first compound 0.0316 µM
[2] = second compound 0.0316 µM, first compound 0.1 µM
[3] = second compound 0.0316 µM, first compound 0.316 µM
[4] = second compound 0.0316 µM, first compound 1 µM
[5] = second compound 0.1 µM, first compound 0.0316 µM
[6] = second compound 0.1 µM, first compound 0.1 µM
[7] = second compound 0.1 µM, first compound 0.316 µM
[8] = second compound 0.1 µM, first compound 1 µM
[9] = second compound 0.316 µM, first compound 0.0316 µM
[10] = second compound 0.316 µM, first compound 0.1 µM
[11] = second compound 0.316 µM, first compound 0.316 µM
[12] = second compound 0.316 µM, first compound 1 µM
[13] = second compound 1 µM, first compound 0.0316 µM
[14] = second compound 1 µM, first compound 0.1 µM
[15] = second compound 1 µM, first compound 0.316 µM
[16] = second compound 1 µM, first compound 1 µM
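Also: spheroids exposed to agents for seven days before readout.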

## CCN1CCN(Cc2ccc(Nc3ncc(F)c(-c4cc(F)c5nc(C)n(C(C)C)c5c4)n3)nc2)CC1 + CC(Nc1ccc2c(c1)OCCn1cc(N3C(=O)OCC3C(F)F)nc1-2)C(N)=O
Second compound 0.00316 µM
  pIC50: < 6.00
Second compound 0.01 µM
  pIC50: < 6.00
Second compound 0.0316 µM
  pIC50: < 6.00
Second compound 0.1 µM
  pIC50: < 6.00
Second compound 0.316 µM
  pIC50: < 6.00
Second compound 1 µM
  pIC50: < 6.00
Second compound 0.00316 µM, first compound 0.00316 µM
  viability, T/C: 97.2%
Second compound 0.00316 µM, first compound 0.01 µM
  viability, T/C: 82.2%
Second compound 0.00316 µM, first compound 0.0316 µM
  viability, T/C: 94%
Second compound 0.00316 µM, first compound 0.1 µM
  viability, T/C: 86.2%
Second compound 0.00316 µM, first compound 0.316 µM
  viability, T/C: 101%
Second compound 0.00316 µM, first compound 1 µM
  viability, T/C: 89.3%
Second compound 0.01 µM, first compound 0.00316 µM
  viability, T/C: 94.1%
Second compound 0.01 µM, first compound 0.01 µM
  viability, T/C: 87.8%
Second compound 0.01 µM, first compound 0.0316 µM
  viability, T/C: 95.6%
Second compound 0.01 µM, first compound 0.1 µM
  viability, T/C: 85.1%
Second compound 0.01 µM, first compound 0.316 µM
  viability, T/C: 89.5%
Second compound 0.01 µM, first compound 1 µM
  viability, T/C: 87.9%
Second compound 0.0316 µM, first compound 0.00316 µM
  viability, T/C: 95.3%
Second compound 0.0316 µM, first compound 0.01 µM
  viability, T/C: 92.3%
[1]
  viability, T/C: 86.7%
[2]
  viability, T/C: 99.3%
[3]
  viability, T/C: 87.6%
[4]
  viability, T/C: 81.8%
Second compound 0.1 µM, first compound 0.00316 µM
  viability, T/C: 81.3%
Second compound 0.1 µM, first compound 0.01 µM
  viability, T/C: 111%
[5]
  viability, T/C: 86.6%
[6]
  viability, T/C: 86%
[7]
  viability, T/C: 94.3%
[8]
  viability, T/C: 71.8%
Second compound 0.316 µM, first compound 0.00316 µM
  viability, T/C: 85%
Second compound 0.316 µM, first compound 0.01 µM
  viability, T/C: 96.1%
[9]
  viability, T/C: 90.6%
[10]
  viability, T/C: 86.9%
[11]
  viability, T/C: 85%
[12]
  viability, T/C: 71.2%
Second compound 1 µM, first compound 0.00316 µM
  viability, T/C: 83.3%
Second compound 1 µM, first compound 0.01 µM
  viability, T/C: 75.5%
[13]
  viability, T/C: 80.5%
[14]
  viability, T/C: 76.9%
[15]
  viability, T/C: 79.1%
[16]
  viability, T/C: 64.2%

## CC(Cn1ccc(-c2ccc(C#N)c(Cl)c2)n1)NC(=O)c1cc(C(C)O)[nH]n1 (centres undefined) + Cc1nc(NC(=O)N2CCCC2C(N)=O)sc1-c1ccnc(C(C)(C)C(F)(F)F)c1
Second compound 0.0316 µM
  pIC50: < 5.00
Second compound 0.1 µM
  pIC50: < 5.00
Second compound 0.316 µM
  pIC50: < 5.00
Second compound 1 µM
  pIC50: < 5.00
Second compound 3.16 µM
  pIC50: < 5.00
Second compound 10 µM
  pIC50: < 5.00
[1]
  viability, T/C: 105%
[2]
  viability, T/C: 108%
[3]
  viability, T/C: 110%
[4]
  viability, T/C: 98.4%
Second compound 0.0316 µM, first compound 3.16 µM
  viability, T/C: 105%
Second compound 0.0316 µM, first compound 10 µM
  viability, T/C: 107%
[5]
  viability, T/C: 98.1%
[6]
  viability, T/C: 99.7%
[7]
  viability, T/C: 111%
[8]
  viability, T/C: 105%
Second compound 0.1 µM, first compound 3.16 µM
  viability, T/C: 120%
Second compound 0.1 µM, first compound 10 µM
  viability, T/C: 112%
[9]
  viability, T/C: 93.1%
[10]
  viability, T/C: 104%
[11]
  viability, T/C: 103%
[12]
  viability, T/C: 97.9%
Second compound 0.316 µM, first compound 3.16 µM
  viability, T/C: 102%
Second compound 0.316 µM, first compound 10 µM
  viability, T/C: 99.1%
[13]
  viability, T/C: 95.9%
[14]
  viability, T/C: 108%
[15]
  viability, T/C: 91.4%
[16]
  viability, T/C: 99.2%
Second compound 1 µM, first compound 3.16 µM
  viability, T/C: 111%
Second compound 1 µM, first compound 10 µM
  viability, T/C: 111%
Second compound 3.16 µM, first compound 0.0316 µM
  viability, T/C: 98.4%
Second compound 3.16 µM, first compound 0.1 µM
  viability, T/C: 96.1%
Second compound 3.16 µM, first compound 0.316 µM
  viability, T/C: 103%
Second compound 3.16 µM, first compound 1 µM
  viability, T/C: 105%
Second compound 3.16 µM, first compound 3.16 µM
  viability, T/C: 105%
Second compound 3.16 µM, first compound 10 µM
  viability, T/C: 101%
Second compound 10 µM, first compound 0.0316 µM
  viability, T/C: 90.2%
Second compound 10 µM, first compound 0.1 µM
  viability, T/C: 84.3%
Second compound 10 µM, first compound 0.316 µM
  viability, T/C: 97%
Second compound 10 µM, first compound 1 µM
  viability, T/C: 98.9%
Second compound 10 µM, first compound 3.16 µM
  viability, T/C: 95%
Second compound 10 µM, first compound 10 µM
  viability, T/C: 91.2%
